We go through eleven compounds from EP1144369B1 (Wyeth Holdings Corporation, priority 1999, dated 2000).

Test [1] deals with T1, MMP-1 (Homo sapiens, UniProt P03956).
T1 sequence (P03956 100-469): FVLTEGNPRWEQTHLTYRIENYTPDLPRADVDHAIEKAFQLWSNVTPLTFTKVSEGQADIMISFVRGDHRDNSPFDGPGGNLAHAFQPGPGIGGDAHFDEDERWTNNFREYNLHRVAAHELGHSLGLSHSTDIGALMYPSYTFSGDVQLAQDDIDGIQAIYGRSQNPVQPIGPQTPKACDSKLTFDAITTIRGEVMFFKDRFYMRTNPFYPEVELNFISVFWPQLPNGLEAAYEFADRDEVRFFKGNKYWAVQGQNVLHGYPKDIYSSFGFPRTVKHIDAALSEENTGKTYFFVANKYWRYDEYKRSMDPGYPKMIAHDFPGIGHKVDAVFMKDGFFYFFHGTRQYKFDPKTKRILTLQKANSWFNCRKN
Description: MMP-1 inhibition (thiopeptide or fluorescent peptide substrate). It counts as biochemical. The conditions noted are these: for IC50: plain number = IC50; for inhibition at 10 µM: read-out: IC50 (nM) or % Inhibition (µM) MMP-1. The procedure:
(§1) The enzyme activity is measured by the rate of the color increase. The thiopeptide substrate is made up fresh as a 20 mM stock in 100% DMSO and the DTNB is dissolved in 100% DMSO as a 100 mM stock and stored in the dark at room temperature. Both the substrate and DTNB are diluted together to 1 mM with substrate buffer (50 mM HEPES pH 7.5, 5 mM CaCl2) before use. The stock of enzyme is diluted with buffer (50 mM HEPES, pH 7.5, 5 mM CaCl2, 0.02% Brij) to the desired final concentration.
(§2) Alternatively, a fluorescent peptide substrate is used. In this test procedure, the peptide substrate contains a fluorescent group and a quenching group. Upon cleavage of the substrate by an MMP, the fluorescence that is generated is quantitated on the fluorescence plate reader. The assay is run in HCBC assay buffer (50mM HEPES, pH 7.0, 5 mM Ca^+2, 0.02% Brij, 0.5% Cysteine), with human recombinant MMP-1, MMP-9, or MMP-13. The substrate is dissolved in methanol and stored frozen in 1 mM aliquots. For the assay, substrate and enzymes are diluted in HCBC buffer to the desired concentrations. Compounds are added to the 96 well plate containing enzyme and the reaction is started by the addition of substrate.
(§3) For either the thiopeptide or fluorescent peptide test procedures, the slope of the line is calculated and represents the reaction rate. The linearity of the reaction rate is confirmed (r^2 >0.85). The mean (x±sem) of the control rate is calculated and compared for statistical significance (p<0.05) with drug-treated rates using Dunnett's multiple comparison test.

Test [2] deals with MMP-13 (Homo sapiens, UniProt P45452). The test is described as follows: MMP-13 inhibition (thiopeptide or fluorescent peptide substrate). It counts as biochemical. How it is done:
as §1, §2, §3

Test [3] concerns the target MMP-9 (Homo sapiens, UniProt P14780). Description: MMP-9 inhibition (thiopeptide or fluorescent peptide substrate). It counts as biochemical. How it is done:
as §1, §2, §3

Test [4] deals with TNF-α converting enzyme (TACE) (Homo sapiens, UniProt P78536). Description: TACE inhibition (fluorescent peptidyl substrate). The conditions noted are these: read-out: IC50 (nM) or % Inhibition (µM) TACE. It counts as biochemical. How it is done:
Using 96-well black microtiter plates, each well receives a solution composed of 10 µL TACE (final concentration 1µg/mL), 70µL Tris buffer, pH 7.4 containing 10% glycerol (final concentration 10 mM), and 10 µL of test compound solution in DMSO (final concentration 1µM, DMSO concentration <1%) and incubated for 10 minutes at room temperature. The reaction is initiated by addition of a fluorescent peptidyl substrate (final concentration 100 µM) to each well and then shaking on a shaker for 5 sec.
The reaction is read (excitation 340 nm, emission 420 nm) for 10 min. and the increase in fluorescence over time is plotted as a linear line. The slope of the line is calculated and represents the reaction rate.
The linearity of the reaction rate is confirmed (r^2 >0.85). The mean (x±sem) of the control rate is calculated and compared for statistical significance (p<0.05) with drug-treated rates using Dunnett's multiple comparison test.

Test [5] concerns THP-1 cells. The test is described as follows: THP-1 soluble protein assay (LPS-stimulated human monocytic THP-1 cells). It counts as cell-based. The conditions noted are these: LPS-stimulated THP-1 cells; for inhibition at 3 µM: Homo sapiens, read-out: % Inhib. @ 3µM THP. The source says: Mitogenic stimulation of THP-1 cells cause differentiation into macrophage like cells with concomitant secretion of tumor necrosis factor (TNF-a) and TNF receptor (TNF-R p75/80 and TNF-R p55/60) and Interleukin-8 (IL-8), among other proteins. In addition, non-stimulated THP-1 cells shed both the p75/80 and the p55/60 receptors over time. The release of membrane bound TNF-α and possibly TNF-R p75/80 and TNF-R p55/60, but not IL-8, is mediated by an enzyme called TNF-a converting enzyme or TACE.
THP-1 cells (from ATCC) are a human monocytic cell line which were obtained from the peripheral blood of a person with acute monocytic leukemia. They can be grown in culture and differentiated into macrophage like cells by stimulation with mitogens.
Each vial of cells are cultured for about two weeks prior to being used for an assay and then are used for only 4 to 6 weeks to screen compounds.
Cell exposure to DMSO was limited to 0.1 % final concentration. […] Compounds can be evaluated for their effect on basal (non-stimulated) shedding of the receptors by replacing the LPS with […] of THP-1 media. Plates are placed into an incubator set at 5% CO2 and at 37°C. After 4 hours of incubation, […] of tissue culture supernatant (TCS) is removed for use in an TNF-a ELISA. Following 24 hours of incubation, […] of TCS is removed and used for analysis in TNF-R p75/80, TNF-R p55/60 and IL-8 ELISAs.
In addition, at the 24 hours timepoint, and the cells for each treatment group are collected by resuspension in 500 µl/well of THP-1 media and transferred into a FACS tube. […] The samples are run on a Becton Dickinson FaxCaliber FLOW cytometry machine and the amount of dye taken up by each cell is measured in the high red wavelength (FL3). Only cells with compromised membranes (dead or dying) can take up PI. The percent of live cells is calculated by the number of cells not stained with PI, divided by the total number of cells in the sample. The viability values calculated for the drug treated groups were compared to the viability value calculated for the vehicle treated mitogen stimulated group ("vehicle positive control") to determine the "percent change from control". This "percent change from control" value is an indicator of drug toxicity.
The quantity of soluble TNF-a, TNF-R p75/80 and TNF-R p55/60 and IL-8 in the TCS of the THP-1 cell cultures are obtained with commercially available ELISAs from R&D Systems, by extrapolation from a standard curve generated with kit standards. The number of cells that either take up or exclude PI are measured by the FLOW cytometry machine and visualized by histograms using commercially available Cytologic software for each treatment group including all controls.
Biological variability in the magnitude of the response of THP-1 cell cultures requires that experiments be compared on the basis of percent change from "vehicle positive control" for each drug concentration. Percent change in each soluble protein evaluated from the "vehicle positive control" was calculated for each compound concentration with the following formula: % Change =(pg/ml(compound) - pg/ml (veh pos control))/(pg/ml (veh pos control) - pg/ml(veh neg control))x 100 [formula]
For the soluble protein (TNF-a, p75/80, p55/60, IL-8) studies under stimulated conditions, the mean pg/ml of duplicate wells were determined and the results expressed as percent change from "vehicle positive control". For the soluble protein (p75/80 and p55/60 receptors) studies under non-stimulated conditions, the mean pg/ml of duplicate wells were determined and the results expressed as percent change from "vehicle positive control" utilizing the following formula: % Change =(pg/ml (compound neg control) - pg/ml (veh neg control)/(pg/ml (veh neg control))X 100 [formula]
IC50 values for each compound are calculated by non-linear regression analysis using customized software utilizing the JUMP statistical package.

TNF-α converting enzyme (TACE), sequence (P78536 215-824, species assumed): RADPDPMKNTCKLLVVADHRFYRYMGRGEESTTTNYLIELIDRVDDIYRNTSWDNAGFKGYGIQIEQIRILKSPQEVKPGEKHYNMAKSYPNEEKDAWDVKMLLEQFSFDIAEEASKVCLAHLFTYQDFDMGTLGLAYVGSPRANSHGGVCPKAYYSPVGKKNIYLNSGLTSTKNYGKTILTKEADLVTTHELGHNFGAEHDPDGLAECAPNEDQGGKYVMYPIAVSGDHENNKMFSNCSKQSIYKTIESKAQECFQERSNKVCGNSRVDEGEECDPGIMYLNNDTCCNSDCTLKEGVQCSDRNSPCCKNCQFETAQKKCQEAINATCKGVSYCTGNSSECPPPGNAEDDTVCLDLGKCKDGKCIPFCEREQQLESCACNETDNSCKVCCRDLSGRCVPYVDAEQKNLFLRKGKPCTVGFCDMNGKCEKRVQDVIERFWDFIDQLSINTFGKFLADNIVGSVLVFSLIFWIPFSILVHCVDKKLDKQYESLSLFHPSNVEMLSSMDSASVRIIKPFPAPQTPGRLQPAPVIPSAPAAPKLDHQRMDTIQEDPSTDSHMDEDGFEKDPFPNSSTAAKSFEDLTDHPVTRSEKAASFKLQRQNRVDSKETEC
MMP-9, sequence (P14780 94-707): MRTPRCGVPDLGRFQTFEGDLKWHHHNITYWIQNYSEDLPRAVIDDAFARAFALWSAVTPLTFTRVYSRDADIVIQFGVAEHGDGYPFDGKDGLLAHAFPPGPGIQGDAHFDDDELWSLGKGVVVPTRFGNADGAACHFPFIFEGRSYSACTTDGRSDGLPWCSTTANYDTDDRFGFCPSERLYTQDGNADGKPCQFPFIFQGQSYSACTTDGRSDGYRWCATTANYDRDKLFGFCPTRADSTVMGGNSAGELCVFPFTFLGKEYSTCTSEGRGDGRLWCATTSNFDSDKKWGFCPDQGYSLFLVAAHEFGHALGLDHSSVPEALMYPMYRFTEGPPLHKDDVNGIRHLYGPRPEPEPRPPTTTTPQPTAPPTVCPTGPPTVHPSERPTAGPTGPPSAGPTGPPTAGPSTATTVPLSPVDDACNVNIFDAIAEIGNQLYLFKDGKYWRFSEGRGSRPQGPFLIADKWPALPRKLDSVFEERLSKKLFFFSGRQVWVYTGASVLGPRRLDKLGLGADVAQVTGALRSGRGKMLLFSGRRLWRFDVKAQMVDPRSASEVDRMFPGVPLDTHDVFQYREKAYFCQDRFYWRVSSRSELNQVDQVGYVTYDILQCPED

In the case of “5-Bromo-2-[(4-butoxy-benzenesulfonyl)-methyl-amino]-N-hydroxy-3-methyl-benzamide [Example 39]”, the 50% inhibitory concentration (IC50) stood at 2490 nM in test [1], 68 nM in test [2], 21 nM in test [3] and 67 nM in test [4]. In addition, in test [5], the “% Inhib. @ 3µM THP” value was 0%.

Turning to `Cc1cc(Br)cc(C(=O)NO)c1N(C)S(=O)(=O)c1ccc(OCC#CCNC2CCC2)cc1` [Example 31, 5-Bromo-2-{[4-(4-cyclobutylamino-but-2-ynyloxy)-benzenesulfonyl]-methyl-amino}-N-hydroxy-3-methyl-benzamide], the inhibition at 10 µM in test [1] amounted to 19%. Moreover, the IC50 came out at 724 nM in test [2], 301 nM in test [3] and 44 nM in test [4]. Moreover, the inhibition at 3 µM in test [5] is 6%.

Take `CNCC#CCOc1ccc(S(=O)(=O)N(C)c2c(C)cc(Br)cc2C(=O)NO)cc1` [Example 32, 5-Bromo-N-hydroxy-3-methyl-2-{methyl-[4-(4-methylamino-but-2-ynyloxy)-benzenesulfonyl]-amino}-benzamide]: the inhibition at 10 µM in test [1] was 26%. Besides, the IC50 was 255 nM in test [2], 643 nM in test [3] and 58 nM in test [4]. Moreover, in test [5], the inhibition at 3 µM worked out at 15%.

On to `Cc1cc(Br)cc(C(=O)NO)c1N(C)S(=O)(=O)c1ccc(OCC#CCNCCCN(C)C)cc1` [Example 33, 5-Bromo-2-({4-[4-(3-dimethylamino-propylamino)-but-2-ynyloxy]-benzenesulfonyl}-methyl-amino)-N-hydroxy-3-methyl-benzamide], for which, in test [1], the inhibition at 10 µM stood at 32%. In addition, the IC50 in test [2] came out at 908 nM; in test [3], 1200 nM; in test [4], 29 nM. The inhibition at 3 µM in test [5] turned out to be 14%.

Take `Cc1cc(Br)cc(C(=O)NO)c1N(C)S(=O)(=O)c1ccc(OCC#CCNCCN(C)C)cc1` [Example 34, 5-Bromo-2-({4-[4-(2-dimethylamino-ethylamino)-but-2-ynyloxy]-benzenesulfonyl}-methyl-amino)-N-hydroxy-3-methyl-benzamide]: in test [1], the inhibition at 10 µM was 39%. Also, the IC50 in test [2] stood at 383 nM; in test [3] it was 790 nM; in test [4], 127 nM. The inhibition at 3 µM in test [5] worked out at 22%.

Regarding `COc1ccc(S(=O)(=O)N(C)c2c(C)cc(Br)cc2C(=O)NO)cc1` [Example 36, 5-Bromo-N-hydroxy-2-[(4-methoxy-benzenesulfonyl)-methyl-amino]-3-methyl-benzamide], the IC50 in test [2] turned out to be 21 nM; in test [3], 11 nM. Further, in test [5], the inhibition at 3 µM was determined as 14%.

Regarding `CC#CCOc1ccc(S(=O)(=O)N(C)c2c(C)cc(-c3ccccc3)cc2C(=O)NO)cc1` [Example 43, 4-[(4-But-2-ynyloxy-benzenesulfonyl)-methyl-amino]-5-methyl-biphenyl-3-carboxylic acid hydroxyamide], the IC50 turned out to be 4240 nM in test [1], 518 nM in test [2], 578 nM in test [3] and 135 nM in test [4]. Further, the inhibition at 3 µM in test [5] was determined as 76%.

On to `CC#CCOc1ccc(S(=O)(=O)N(C)c2c(C)cc(Br)cc2C(=O)NO)cc1` [Example 54, 5-Bromo-2-[(4-But-2-ynyloxy-benzenesulfonyl)-methyl-amino]-N-hydroxy-3-methyl-benzamide], for which the IC50 is 1620 nM in test [1], 154 nM in test [2] and 304 nM in test [3]. Besides, the inhibition at 3 µM in test [5] was found to be 84%.

For the compound `CCCCC#CCOc1ccc(S(=O)(=O)N(C)c2c(C)cc(Br)cc2C(=O)NO)cc1` [Example 56, 5-Bromo-2-[(4-hept-2-ynyloxy-benzenesulfonyl)-methyl-amino]-N-hydroxy-3-methyl-benzamide], the inhibition at 10 µM in test [1] amounted to 53%. The IC50 in test [2] amounted to 701 nM; in test [3], 389 nM. Moreover, in test [5], the inhibition at 3 µM is 16%.

In the case of `Cc1cc(Br)cc(C(=O)NO)c1N(C)S(=O)(=O)c1ccc(OCC#Cc2ccccc2)cc1` [Example 59, 5-Bromo-N-hydroxy-3-methyl-2-{methyl-[4-(3-phenyl-prop-2-ynyloxy)-benzenesulfonyl]-amino}-benzamide], the IC50 in test [2] is 321 nM; in test [3] it was 857 nM; in test [4] it was 66 nM. Besides, the inhibition at 3 µM in test [5] was 20%.

Consider `Cc1cc(Br)cc(C(=O)NO)c1N(C)S(=O)(=O)c1ccc(OCC#CCO)cc1` [Example 70, 5-Bromo-N-hydroxy-2-{[4-(4-hydroxy-but-2-ynyloxy)-benzenesulfonyl]-methyl-amino}-3-methyl-benzamide], for which the values for the IC50 in test [1], in test [2] and in test [3] were 3200 nM, 83 nM and 477 nM, respectively. Moreover, in test [5], the inhibition at 3 µM turned out to be 88%.
